Results from BindingDB's records for doi:10.7270/Q2ZC817P (The Scripps Research Institute Molecular Screening Center, 2007).
Where a name gives a salt, the structure may show the parent alone.

molecular target: Sphingosine 1-phosphate receptor 1 (Homo sapiens, UniProt P21453); assay: potentiators of S1P1 agonist response, dose response, cell-based, potentiator mode, 60K MLSMR set (AID 466); settings: not given
Sequence (P21453 whole entry): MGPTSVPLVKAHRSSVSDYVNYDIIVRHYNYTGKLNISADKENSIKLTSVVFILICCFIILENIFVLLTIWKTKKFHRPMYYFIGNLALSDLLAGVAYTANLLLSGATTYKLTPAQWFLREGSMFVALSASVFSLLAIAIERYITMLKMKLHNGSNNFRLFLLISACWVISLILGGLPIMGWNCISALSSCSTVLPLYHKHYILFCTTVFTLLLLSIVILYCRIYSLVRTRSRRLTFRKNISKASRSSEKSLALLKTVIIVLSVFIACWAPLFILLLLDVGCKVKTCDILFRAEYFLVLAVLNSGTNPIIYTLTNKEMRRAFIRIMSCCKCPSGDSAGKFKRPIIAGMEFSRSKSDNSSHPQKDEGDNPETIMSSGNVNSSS

| Structure (SMILES) | EC50 |
| --- | --- |
| Cc1nnc(SC(=O)N2c3ccccc3Sc3ccccc32)s1 [10-phenothiazinecarbothioic acid S-(5-methyl-1,3,4-thiadiazol-2-yl) ester] | 3.63 µM |
| N#Cc1nc(COc2ccc(Cl)cc2Cl)oc1N1CCN(c2ccccc2)CC1 [2-[(2,4-dichlorophenoxy)methyl]-5-(4-phenyl-1-piperazinyl)-4-oxazolecarbonitrile] | > 10 µM |
| Cc1ccc(-n2c(C)cc(C(=O)COC(=O)c3c(C)noc3C)c2C)cc1 [3,5-dimethyl-4-isoxazolecarboxylic acid [2-[2,5-dimethyl-1-(4-methylphenyl)-3-pyrrolyl]-2-oxoethyl] ester] | 7.98 µM |
| O=C(NCc1ccc2c(c1)OCO2)C1CC(=O)N(C2CCCCCCC2)C1 (configuration not stated) [1-cyclooctyl-5-keto-N-piperonyl-pyrrolidine-3-carboxamide] | > 95 µM |
| O=C(c1ccc(F)cc1)C(CN1CCOCC1)c1ccccc1 (configuration not stated) [1-(4-fluorophenyl)-3-(4-morpholinyl)-2-phenyl-1-propanone;hydrochloride] | 23.5 µM |
| COC(=O)c1ccc(C(c2c(N)n(CC(C)C)c(=O)[nH]c2=O)N2CCN(c3ccccc3)CC2)cc1 (configuration not stated) [4-[[6-amino-1-(2-methylpropyl)-2,4-dioxo-5-pyrimidinyl]-(4-phenyl-1-piperazinyl)methyl]benzoic acid methyl ester] | > 95 µM |
| CCC(NC(C)c1ccccc1)=C1C(=O)N(C)C(=O)N(C)C1=O (configuration not stated) [SMR000043429] | 14.4 µM |
| O=C(Nc1ccc(N2CCOCC2)c(Cl)c1)c1cccc(F)c1 [MLS000066209] | 0.935 µM |
| CC(C)(CC(=O)N1CCN(c2ccc(Cl)cc2)CC1)CC1=NS(=O)(=O)c2ccccc2N1 [1-[4-(4-chlorophenyl)-1-piperazinyl]-4-(1,1-dioxo-4H-1,2,4-benzothiadiazin-3-yl)-3,3-dimethyl-1-butanone] | 9.93 µM |
| COc1ccc(-c2nc(-c3ccncc3)no2)cc1OC [5-(3,4-dimethoxyphenyl)-3-(4-pyridyl)-1,2,4-oxadiazole] | 1.2 µM |
| CCCC(=O)N1CCN(c2ccc(NC(=O)c3cc4ccccc4o3)cc2Cl)CC1 [MLS000096729] | 8.63 µM |
| CCc1oc2ccccc2c1C(=O)c1cc(Br)c(O)c(Br)c1 | 5.13 µM |
| Cc1occc1C(=O)N1CCN(c2ccc(Cl)c(Cl)c2)CC1 [1-(3,4-dichlorophenyl)-4-(2-methyl-3-furoyl)piperazine] | 5.18 µM |
| CC1=NC(=O)NC(c2ccc(Cl)cc2)C1C(=O)OCc1ccc2c(c1)OCO2 (configuration not stated) [1,3-benzodioxol-5-ylmethyl 4-(4-chlorophenyl)-6-methyl-2-oxidanylidene-3,4-dihydro-1H-pyrimidine-5-carboxylate] | > 0.3 µM |
| O=C(c1cc(-c2ccco2)on1)N1CCN(C(c2ccccc2)c2ccccc2)CC1 [(4-benzhydrylpiperazin-1-yl)-[5-(furan-2-yl)-1,2-oxazol-3-yl]methanone] | 5.82 µM |
| CCc1ccc2oc(-c3cc(N)cc(C)c3O)nc2c1 [(6E)-4-amino-6-(5-ethyl-3H-1,3-benzoxazol-2-ylidene)-2-methyl-1-cyclohexa-2,4-dienone] | 11.6 µM |
| O=C(Cc1c[nH]c2ccccc12)N1CCc2ccccc21 | 7.74 µM |
| Cc1nc2sccn2c1-c1csc(NCc2ccccc2)n1 [4-(6-methyl-5-imidazo[2,1-b]thiazolyl)-N-(phenylmethyl)-2-thiazolamine] | 3.6 µM |

| Structure (SMILES) | EC50 |
| --- | --- |
| COc1ccc(-n2c(C)cc(C(=O)CSc3nnc(-c4cccs4)o3)c2C)cc1 [1-[1-(4-methoxyphenyl)-2,5-dimethyl-3-pyrrolyl]-2-[(5-thiophen-2-yl-1,3,4-oxadiazol-2-yl)thio]ethanone] | 1.96 µM |
| O=C1C2CCCN2C(c2cccnc2)N1c1cccc(Cl)c1 (configuration not stated) [2-(3-chlorophenyl)-3-(3-pyridinyl)-5,6,7,7a-tetrahydro-3H-pyrrolo[1,2-c]imidazol-1-one] | > 95 µM |
| COc1ccc(CCNc2ncnc3c2oc2ccccc23)cc1OC [MLS000041708] | 0.601 µM |
| CC1=NC(=O)NC(c2ccc(F)cc2)C1C(=O)OCc1ccc2c(c1)OCO2 (configuration not stated) [1,3-benzodioxol-5-ylmethyl 4-(4-fluorophenyl)-6-methyl-2-oxidanylidene-3,4-dihydro-1H-pyrimidine-5-carboxylate] | 0.631 µM |
| Cc1csc(NC(=O)c2nc(-c3ccccc3)n(-c3ccccc3)n2)n1 [MLS000058347] | 9.69 µM |
| Clc1ccc(OCc2nnc(SCc3nc4ccccc4[nH]3)n2Cc2ccco2)cc1 [2-[[[5-[(4-chlorophenoxy)methyl]-4-(2-furanylmethyl)-1,2,4-triazol-3-yl]thio]methyl]-1H-benzimidazole] | 9.34 µM |
| CCOC(=O)N1CCN(C(=O)C2CCN(c3ncnc4c3sc3cccc(F)c34)CC2)CC1 [4-[1-(9-fluorobenzothiopheno[3,2-d]pyrimidin-4-yl)isonipecotoyl]piperazine-1-carboxylic acid ethyl ester] | 6.63 µM |
| Cc1ccc2c(c1)N(CC(=O)Nc1ccc3c(c1)OCCO3)C(=O)CO2 [MLS000074457] | > 95 µM |
| Clc1ccc(-n2nnnc2Sc2ncnc3sccc23)cc1 [SMR000066808] | 5.29 µM |
| COc1ccc(NC(=O)c2cnn3c(C(F)(F)F)cc(-c4ccco4)nc23)cc1OC [MLS000109325] | > 95 µM |
| N#Cc1ccc(NC(=O)Nc2ccc(Cl)cc2)cc1 [1-(4-chlorophenyl)-3-(4-cyanophenyl)urea] | 7.91 µM |
| Cc1nc2ccc3nc(NC(=O)C4COc5ccccc5O4)sc3c2s1 (configuration not stated) [MLS000100909] | 4.01 µM |
| Cn1c(C(=O)N2CCc3ccccc3C2)cc2oc3ccccc3c21 [2-(3,4-dihydroisoquinolin-2(1H)-ylcarbonyl)-1-methyl-1H-[1]benzofuro[3,2-b]pyrrole] | > 30 µM |
| Cc1[nH]nc2c1C1(C(=O)N(Cc3ccc(Cl)cc3)c3ccccc31)C(C#N)C(=N)O2 (configuration not stated) [6-amino-1'-[(4-chlorophenyl)methyl]-3-methyl-2'-oxo-5-spiro[2H-pyrano[2,3-c]pyrazole-4,3'-indole]carbonitrile] | 43.6 µM |
| COC(=O)c1cc(NCc2ccccc2F)ccc1N1CCOCC1 [5-[(2-fluorobenzyl)amino]-2-morpholino-benzoic acid methyl ester] | 5.46 µM |
| Cn1c(C(=O)N2CCCc3ccccc32)cc2sccc21 [(3,4-Dihydro-2H-quinolin-1-yl)-(4-methyl-4H-thieno[3,2-b]pyrrol-5-yl)-methanone] | 1.47 µM |
| Cc1cccc(-n2ncc3c(N(C)C4CCCCC4)ncnc32)c1 [MLS000100814] | > 95 µM |
| CCCc1ccc(Oc2c[nH]nc2-c2ccc(O)cc2O)cc1 [(4E)-3-hydroxy-4-[4-(4-propylphenoxy)-1,2-dihydropyrazol-3-ylidene]-1-cyclohexa-2,5-dienone] | 18.2 µM |

same assay, conditions: inactive by the depositor's call

| Structure (SMILES) | EC50 |
| --- | --- |
| c1ccc(N2CCN(Cc3ccnc4ccccc34)CC2)cc1 [4-[(4-phenyl-1-piperazinyl)methyl]quinoline] | 10.6 µM |
| CN(CC1CCCO1)S(=O)(=O)c1ccc(C(=O)Nc2nc(-c3ccccn3)cs2)cc1 (configuration not stated) [4-[methyl(2-oxolanylmethyl)sulfamoyl]-N-[4-(2-pyridinyl)-2-thiazolyl]benzamide] | 24 µM |
| COc1cccc(-c2nnc3sc(C4CCCCC4)nn23)c1 [6-cyclohexyl-3-(3-methoxyphenyl)-[1,2,4]triazolo[3,4-b][1,3,4]thiadiazole] | 30.6 µM |
| Cc1cc(C(=O)CN2C(=O)c3ccccc3C2=O)c(C)n1Cc1cccs1 [2-[2-[2,5-dimethyl-1-(2-thenyl)pyrrol-3-yl]-2-keto-ethyl]isoindoline-1,3-quinone] | 21.4 µM |
| COc1ccc(S(=O)(=O)Cc2ccc(C(=O)N3CCN(c4ccc(Cl)cc4)CC3)o2)cc1 [MLS000120227] | 14.7 µM |
| CCCCOc1ccc(S(=O)(=O)n2c(C)nc3ccccc32)cc1 [1-(4-butoxyphenyl)sulfonyl-2-methyl-benzimidazole] | 28.9 µM |
| O=C(OC1CCCCC1)c1ccc(NC(=O)c2ccco2)cc1 [4-(2-furoylamino)benzoic acid cyclohexyl ester] | 12.2 µM |
| CCN(CC)C(=O)Oc1ccc2c(=O)c(-c3ccc(OC)cc3)coc2c1 [MLS000083046] | 10.9 µM |
| CCCc1cc2c(=O)c(-c3ccccn3)coc2cc1OC [7-methoxy-6-propyl-3-(2-pyridinyl)-1-benzopyran-4-one] | 37.1 µM |
| Cc1ccc(N2C(=O)c3cccc4c(N5CCN(C)CC5)ccc(c34)C2=O)c2cccnc12 [6-(4-methyl-1-piperazinyl)-2-(8-methyl-5-quinolinyl)-1H-benzo[de]isoquinoline-1,3(2H)-dione] | 33.2 µM |
| Cc1ccc(OCCn2cc(C(=N)NO)c3ccccc32)cc1C [1-[2-(3,4-dimethylphenoxy)ethyl]-N'-hydroxy-1H-indole-3-carboximidamide] | 11.2 µM |
| Cc1nc(C)c(C(=O)Nc2ccc(Oc3ccccc3)cc2)o1 [2,4-dimethyl-N-(4-phenoxyphenyl)-1,3-oxazole-5-carboxamide] | 10.5 µM |
| Cc1ccc(S(=O)(=O)Nc2ccc3ncccc3c2)cc1 [4-methyl-N-(6-quinolinyl)benzenesulfonamide] | 10.7 µM |
| Clc1ccc(-c2nc3nc4ccccc4nc3n2Cc2ccco2)cc1 [2-(4-chlorophenyl)-3-(2-furanylmethyl)imidazo[4,5-b]quinoxaline] | 16.6 µM |
| CCCn1c(CNc2ccc(Br)cc2)nc2ccccc21 [(4-bromophenyl)-[(1-propylbenzimidazol-2-yl)methyl]amine] | 12.8 µM |
| Oc1nnc(Sc2ncnc3sccc23)n1CCc1ccccc1 [4-(2-phenylethyl)-3-(4-thieno[2,3-d]pyrimidinylthio)-1H-1,2,4-triazol-5-one] | 15 µM |
| Cc1cccc(-c2nc(C#N)c(NC3CCCCC3)o2)c1 [5-(cyclohexylamino)-2-(3-methylphenyl)-1,3-oxazole-4-carbonitrile] | 11.8 µM |
| Cc1ccc(Cl)cc1N1CCN(C(=O)C2CCN(c3nnc(-n4cccc4)s3)CC2)CC1 [MLS000119702] | 43.3 µM |
| CC1=C(/C=C/C(C)=C/C=C/C(C)=C/C(=O)O)C(C)(C)CCC1 [ALL-TRANS-RETINOIC ACID] | 34.1 µM |
| CCCn1c(CN2CCN(c3cccc(Cl)c3)CC2)nc2c1c(=O)n(C)c(=O)n2C [8-[[4-(3-chlorophenyl)-1-piperazinyl]methyl]-1,3-dimethyl-7-propylpurine-2,6-dione] | 18.8 µM |
| Cc1ccc(C)c(-n2nnnc2Sc2nnnn2-c2ccccc2)c1 [1-(2,5-dimethylphenyl)-5-(1-phenyltetrazol-5-yl)sulfanyltetrazole] | 14.8 µM |
